US20120071464A1, “METHOD OF TREATMENT OF OBSESSIVE COMPULSIVE DISORDER WITH ONDANSETRON” (priority 2009, published 2012)
Values joined by “and” are separate entries in the source; they are usually repeats but may differ in a detail not shown here. Equal values may be shown once. “Also recorded” adds a separate entry of the source.

How the values were obtained:
[1] = system: OCD patients resistant to SRI plus antipsychotic therapy; assay: Ondansetron augmentation therapy (SRI and antipsychotic), single-blind 12-week study; format: in vivo, human
Description: Between March 2008 and November 2008, fourteen adults aged 18 to 55 were enrolled in a study at the Institute for Neuroscience, Florence, Italy. […] All diagnoses were established utilizing a structured interview, the Structured Clinical Interview for DSM IV Axis I Disorders (SCID I). (See Spitzer, R. L. et al. ARCH GEN PSYCHIATRY 49(8):624-649) Potential subjects with a history of alcohol or substance abuse, current severe depressive symptoms, bipolar disorder, panic disorder, schizophrenia, other psychiatric conditions, heart disease, arrhythmia, liver problems (including cirrhosis), seizures, glaucoma or serious medical disease were excluded. Patients with hoarding as their only OCD symptom and women of childbearing potential not using a medically acceptable contraceptive method were also excluded. After being fully informed about the study and signing an informed consent approved by the Internal Institutional Review Board, subjects were administered an ondansetron hydrochloride (oral solution) dosage of 0.25 mg twice a day for 6 weeks, followed by 0.5 mg twice a day for 6 weeks for a total observation period of 12 weeks. […] The Y-BOCS, Montgomery-Asberg Depression Rating Scale (MADRS) (see Montgomery, S. A., BR J PSYCHIATRY 1979; 134:382-389) was administered at screening and baseline, and these assessments were repeated at every follow-up visit at 2-week intervals, along with the Clinical Global Impressions-Improvement (CGI-I) rating (see Guy, W. ECDEU Assessment Manual for Psychopharmacology. US Dept Health, Education, and Welfare publication (ADM) 76-338. Rockville, Md.: National Institute of Mental Health; 1976:218-222) and an unpublished Drug Effect scale. The Drug Effect scale asked subjects to rate “How anxious are you now?” on a scale of zero (not at all) to 10 (“the most anxious I have ever been”). Similar rating questions have been “Do you experience appearance or increment in frequency of headaches?”, “Do you experience appearance or increment in frequency of headaches fatigue?” and “Do you experience appearance or increment in frequency of headaches constipation” and so on regarding other common ondansetron side effects (diarrhea, urinary retention, itching, and dizziness). Furthermore, each evening during the first week of study medication, a study psychiatrist called the subject to ask for major or unexpected collateral effects (as chest pain, an unexplained skin rash, or tremors.). […] (See […]. et al., Am J PSYCHIATRY 1997; 154:320-321) Subjects with MADRS scores ≧18 were excluded. Ratings were administered by an investigator who was blind to the treatment condition of the patients. Given the small sample size, mean changes from baseline in rating scales were tested with a non-parametric method based on ranks (Wilcoxon signed rank test), using a two-tailed significance level of p≦0.05. Relationships among rated and demographical variables were tested with Spearman's rank correlation tests, using a two-tailed significance level of p≦0.05. Age, baseline OCD severity, and depressive symptoms were controlled for by stratifying through the Mantel-Haenszel χ2 test. Body mass index (BMI) was adjusted given the differences of ondansetron bioavailability according to BMI.

[2] = system: patients with treatment-resistant OCD under stable treatment with SRIs; assay: Ondansetron augmentation therapy (SRI), single-blind 12-week study with 4-week discontinuation follow-up; format: in vivo, human; set-up: average reduction in CGI scores for the whole group / YBOCS % Reduction, 6 Weeks: concentration or dose not given beside the values; conditions: for worsening of YBOCS symptoms during the discontinuation phase: after Week 12
Protocol: Twenty-one patients with a DSM-IV diagnosis of treatment-resistant OCD, under stable treatment with SRIs approved by the FDA for OCD therapy, received 12 weeks of single-blind ondansetron augmentation initiated at a dose of 0.25 mg twice daily for 2 weeks, and titrated to 0.5 mg twice daily for 10 weeks. Patients were rated every two weeks using the Yale Brown Obsessive Compulsive Scale (YBOCS) and Clinical Global Impressions Scale (CGI). Treatment-resistant patients were defined as having completed an adequate trial of SRIs at a moderate to high dose for at least 12 weeks and still having a YBOCS severity of >24, and CGI-Severity of ≧4. Treatment response was defined as an additional 25% reduction in YBOCS score from YBOCS score at the initiation of ondansetron augmentation, an end of treatment (EOT) period YBOCS of ≦24, and CGI-Improvement (CGI-I) of ≦2. Additionally, ondansetron was discontinued after 12 weeks and patients were followed up for another 4 weeks for relapse in YBOCs symptoms.

[3] = system: mesenteric bed or the nerves in the heart; conditions: animal studies; cited from earlier work
[4] = end of 6th week, non responders (n = 5)
[5] = end of 6th week, responders (n = 9)
[6] = end of 12th week, non responders (n = 5)
[7] = end of 12th week, responders (n = 9)
[8] = individual patients 1-14, versus baseline
[9] = end of 6th week, non responders (n = 9)
[10] = end of 12th week, non responders (n = 9)
[11] = end of 12th week, responders (n = 12)
[12] = individual patients, versus baseline
[13] = individual patients, EC: week 1 score carried forward

SMILES: Cc1nccn1CC1CCc2c(c3ccccc3n2C)C1=O (stereo not drawn) [ondansetron]
- average YBOCS score change of the whole group (decrease) ([1]; 6 weeks, n = 14): 16%
- YBOCS score decrease, Patient 11 ([1]; 12th week, with citalopram 60 mg/day and risperidone 2 mg/day): 35%
- responders to ondansetron among patients on risperidone ([1]; 12 weeks, six of seven patients): 86%
- side effects throughout the study (severity) ([1]; 12 weeks, up to 1 mg/day): mild to moderate
- patients meeting YBOCS criteria for treatment response (reduction >25%) ([1]; end of 6th week, 3/14 patients): 21.4%
- CGI (mean, SD) [1, 4]: 4.6 (1.5)
- MADRS (mean, SD) [1, 4]: 8.0 (4.0)
- YBOCS (mean, SD) [1, 4]: 22.8 (3.8)
- CGI (mean, SD) [1, 5]: 3.4 (1.6)
- MADRS (mean, SD) [1, 5]: 6.7 (2.4)
- YBOCS (mean, SD) ([1]; end of 6th week, responders (n = 9), 0.25 mg twice a day added to SRI + antipsychotic): 22.6 (4.2)
- CGI (mean, SD) [1, 6]: 4.8 (1.3)
- MADRS (mean, SD) [1, 6]: 7.6 (3.8)
- YBOCS (mean, SD) [1, 6]: 21.4 (6.1)
- CGI (mean, SD) [1, 7]: 2.3 (1.2)
- MADRS (mean, SD) [1, 7]: 6.8 (2.0)
- YBOCS (mean, SD) ([1]; end of 12th week, responders (n = 9), 0.5 mg twice a day in weeks 7-12): 20.8 (4.1)
- average YBOCS change score of the whole group (decrease) ([1]; end of 12 weeks, n = 14): 23% and 23.2%
- decreased appetite (number of patients) ([1]; first 2 weeks of treatment): two
- headache (number of patients) ([1]; first 2 weeks of treatment): two
- significant side effects ([1]; fourteen subjects): None of the fourteen subjects experienced significant side effects or worsening of OC symptoms; also recorded: None of the subjects experienced significant or lasting side effects
- Mean MADRS scores ([1]; from baseline to the end of week 1): did not change significantly
- YBOCS Score, 6 Weeks ([1]; individual patients 1-14): 25 (3×) and 28 and 17 (2×) and 16 and 27 and 26 and 24 (3×) and 19 and 21
- YBOCS Score, 12 Weeks ([1]; individual patients 1-14): 25 (3×) and 15 (2×) and 14 and 30 and 23 and 22 (2×) and 24 and 18 and 17 and 20
- Percent Reduction at 6 weeks (YBOCS) [1, 8]: 3.84% and 28.57% and 20.00% (2×) and 15.00% and 12.90% and 21.20% and 31.42% and 27.27% and 20.80% and 4.54% and 10.52% and .00% and 19.32%
- Percent Reduction at 12 weeks (YBOCS) [1, 8]: 3.84% and 28.57% (2×) and 25.00% (2×) and 30.00% and 3.22% and 27.27% (2×) and 37.14% and 22.72% and 21.05% and 16.60% and 29.03%
- mild increase in anxiety levels (number of patients) ([1]; lasted only one night): One
- Clinical Global Impressions-Improvement (CGI-I) scores ([1]; through week 12 (FIG. 4)): improved concurrent with improvement in the YBOCS scores
- mean pulse rate or mean blood pressure ([1]; throughout the study): No change
- course after discontinuation of the ondansetron ([1]; two responder patients): experienced worsening
- tolerability of treatment ([2]; 12 weeks, up to 0.5 mg twice daily): well tolerated
- % Decrease in YBOCS Scores ([2]; All Patients, week 2): 12.66%
- Avg YBOCS Scores ([2]; All Patients, week 2): 26.29
- % Decrease in YBOCS Scores ([2]; All Patients, week 4): 16.93%
- Avg YBOCS Scores ([2]; All Patients, week 4): 25
- % Decrease in YBOCS Scores ([2]; All Patients, week 6): 19.3%
- Avg YBOCS Scores ([2]; All Patients, week 6): 24.29
- % Decrease in YBOCS Scores ([2]; All Patients, week 8): 21.99%
- Avg YBOCS Scores ([2]; All Patients, week 8): 23.48
- % Decrease in YBOCS Scores ([2]; All Patients, week 10): 24.21%
- Avg YBOCS Scores ([2]; All Patients, week 10): 22.81
- % Decrease in YBOCS Scores ([2]; All Patients, week 12): 26.27%
- Avg YBOCS Scores ([2]; All Patients, week 12): 22.19
- Avg YBOCS Scores ([2]; All Patients, week 14 (ondansetron discontinued after week 12)): 24.95
- Avg YBOCS Scores ([2]; All Patients, week 16 (ondansetron discontinued after week 12)): 25.43
- % Decrease in YBOCS Scores ([2]; Non-Responders, week 2): 2.93%
- % Decrease in YBOCS Scores ([2]; Non-Responders, week 4): 2.93%
- % Decrease in YBOCS Scores ([2]; Non-Responders, week 6): 2.56%
- % Decrease in YBOCS Scores ([2]; Non-Responders, week 8): 2.2%
- % Decrease in YBOCS Scores ([2]; Non-Responders, week 10): 1.47%
- % Decrease in YBOCS Scores ([2]; Non-Responders, week 12): 2.93%
- % Decrease in YBOCS Scores ([2]; Responders, week 2): 20.06%
- % Decrease in YBOCS Scores ([2]; Responders, week 4): 27.58%
- % Decrease in YBOCS Scores ([2]; Responders, week 6): 32.03%
- % Decrease in YBOCS Scores ([2]; Responders, week 8): 37.05%
- % Decrease in YBOCS Scores ([2]; Responders, week 10): 41.5%
- % Decrease in YBOCS Scores ([2]; Responders, week 12): 44.01%
- patients experiencing a treatment response in 12 weeks or less ([2]; Twelve of the 21 patients): 57%
- difference between YBOCS score at baseline and after 12 weeks, non-responders ([2]; after 12 weeks): 2.9%
- reduction in CGI-I from baseline, responders ([2]; after 12 weeks): 77%
- reduction in YBOCS from baseline, responders ([2]; after 12 weeks): 44%
- worsening of YBOCS symptoms during the discontinuation phase ([2]; all patients): 14.6%
- worsening of YBOCS symptoms during the discontinuation phase ([2]; responders): 38.3%
- patients experiencing response within the first 6 weeks ([2]; eight of 21 patients, 25% improvement in YBOCS, EOT YBOCS <24, CGI-I=1-2): 38%
- CGI (mean, SD) [2, 9]: 4.63 (0.5)
- YBOCS (mean, SD) [2, 9]: 29.56 (4.0)
- CGI (mean, SD) ([2]; end of 6th week, responders (n = 12)): 1.92 (0.7)
- YBOCS (mean, SD) ([2]; end of 6th week, responders (n = 12), added to SRI): 20.33 (3.8)
- CGI (mean, SD) [2, 10]: 4.88 (0.4)
- YBOCS (mean, SD) [2, 10]: 29.44 (4.8)
- CGI (mean, SD) [2, 11]: 1.17 (0.4)
- YBOCS (mean, SD) [2, 11]: 16.75 (2.7)
- CGI-I Score, 6 Weeks ([2]; individual patients): 2 (7×) and 3 (2×) and 5 (6×) and 1 (3×) and 4 (3×)
- CGI-I Score, 12 Weeks ([2]; individual patients): 1 (10×) and 5 (8×) and 4 and 2 (2×)
- YBOCS % Reduction, 6 Weeks [2, 12]: 31.25% and 34.48% and 9.68% and 16.00% and 32.14% and 34.38% and 42.42% and 28.95% and 27.27% and 7.69% and 41.67% and 0.00% (3×) and 5.00% and 37.04% and 19.35% and −3.57% (2×) and 40.74% and 6.06%
- YBOCS % Reduction, 12 Weeks [2, 12]: 34.38% and 41.38% and 9.68% and 44.00% and 42.86% and 50.00% and 51.52% and 44.74% and 42.42% and 11.54% and 45.83% and 13.79% and 2.50% and −6.25% and 48.15% and 38.71% and −7.14% and −3.57% and 44.44% and −3.85% and 9.09%
- YBOCS Score, 6 Weeks [2, 13]: 22 and 19 (3×) and 28 and 21 (2×) and 27 and 24 (2×) and 14 and 29 (3×) and 38 and 32 and 17 and 25 and 16 and 26 and 31
- YBOCS Score, 12 Weeks [2, 13]: 21 (2×) and 17 and 28 and 14 (2×) and 16 (3×) and 19 (2×) and 23 and 13 and 25 and 39 and 34 and 30 (2×) and 29 and 15 and 27
- average reduction in CGI scores for the whole group ([2]; n = 21, 12 weeks): 46%
- average reduction in YBOCS-rated symptoms of the whole group ([2]; n = 21, 12 weeks): 26.3%
- effect on the mesenteric bed or the nerves in the heart [3]: did not appear to have effect on the mesenteric bed or the nerves in the heart
